The assay relates to CD2F1 mice, L1210 leukemia ip, survival T/C. Kind of assay: NCI In Vivo Anticancer Drug Screen. Data for tumor model L1210 Leukemia (intraperitoneal) in CD2F1 (CDF1) mice. Conditions: endpoint: mean survival time, higher = longer survival. The method in brief:
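Read-out first: treated-group measurement over vehicle-control measurement, expressed as a ratio. Animals bore a transplanted tumor line and were dosed with compound or vehicle.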

[1] abbreviates: dose: 100.0 mg/kg/injection, schedule: Q04DX002 (ip), vehicle: saline with Tween-80.
Where [2] appears, read: dose: 100.0 mg/kg/injection, schedule: Q04DX003 (ip), vehicle: saline with Tween-80.
The mark [3] stands for this setting: dose: 400.0 mg/kg/injection, schedule: Q04DX003 (ip), vehicle: saline with Tween-80.
Setting [4] is: dose: 100.0 mg/kg/injection, schedule: Q01DX009 (ip), vehicle: saline with Tween-80.
The mark [5] stands for this setting: dose: 200.0 mg/kg/injection, schedule: Q01DX009 (ip), vehicle: saline with Tween-80.
[6] abbreviates: dose: 400.0 mg/kg/injection, schedule: Q01DX009 (ip), vehicle: saline with Tween-80.
Where [7] appears, read: dose: 200.0 mg/kg/injection, schedule: Q04DX003 (ip), vehicle: saline with Tween-80.
Setting [8] is: dose: 50.0 mg/kg/injection, schedule: Q01DX009 (ip), vehicle: saline.
Setting [9] is: dose: 100.0 mg/kg/injection, schedule: Q01DX009 (ip), vehicle: saline.

“And” between values parts separate entries of the source, which are not always exact repeats. Equal values may be shown once. Toxic doses and inconclusive results are not listed.

As for `CCCCCCCCC(Sc1n[nH]c(=O)[nH]c1=O)C(=O)OCC` (stereo not given), the T/C by setting is: (dose: 12.5 mg/kg/injection, schedule: Q01DX005 (ip), vehicle: distilled water + Tween-80) 101 % of control; (dose: 25.0 mg/kg/injection, schedule: Q01DX005 (ip), vehicle: distilled water + Tween-80) 95 % of control; (dose: 50.0 mg/kg/injection, schedule: Q01DX005 (ip), vehicle: distilled water + Tween-80) 95 % of control; (dose: 100.0 mg/kg/injection, schedule: Q01DX005 (ip), vehicle: distilled water + Tween-80) 100 % of control; (dose: 200.0 mg/kg/injection, schedule: Q01DX005 (ip), vehicle: distilled water + Tween-80) 95 % of control.

`CCCCCCCCCCCCCCCCCCCC`: the T/C is 90 % of control (dose: 25.0 mg/kg/injection, schedule: Q04DX003 (ip), vehicle: other); 91 % of control (dose: 50.0 mg/kg/injection, schedule: Q04DX003 (ip), vehicle: other); 88 % of control (dose: 100.0 mg/kg/injection, schedule: Q04DX003 (ip), vehicle: other).

On to `Cc1ccc(S(=O)(=O)OCC2OCOC(COS(=O)(=O)c3ccc(C)cc3)C(OS(=O)(=O)c3ccc(C)cc3)C2OS(=O)(=O)c2ccc(C)cc2)cc1` (stereo not given), for which the T/C under setting [1] was 88 % of control; the T/C (dose: 200.0 mg/kg/injection, schedule: Q04DX002 (ip), vehicle: saline with Tween-80) was 100 % of control; the T/C (dose: 400.0 mg/kg/injection, schedule: Q04DX002 (ip), vehicle: saline with Tween-80) was 107 % of control.

On to `O=C(O)c1ccsc1`, for which the T/C was 97 % of control (dose: 37.5 mg/kg/injection, schedule: Q04DX003 (ip), vehicle: saline with Tween-80) and 97 % of control (dose: 75.0 mg/kg/injection, schedule: Q04DX003 (ip), vehicle: saline with Tween-80).

Consider `N#CC(C#N)CN(C1=NCCO1)c1cccc2c1CCCC2`, for which the T/C (dose: 25.0 mg/kg/injection, schedule: Q04DX002 (ip), vehicle: saline with Tween-80) was 94 % of control; the T/C (dose: 50.0 mg/kg/injection, schedule: Q04DX002 (ip), vehicle: saline with Tween-80) was 94 % of control; the T/C under setting [1] was 98 % of control; the T/C under setting [2] is 89 % of control; the T/C under setting [3] was 89 % of control.

With `O=C(OCC#CC#CCOC(=O)c1cccc2ccccc12)c1cccc2ccccc12`, the T/C by setting is: (dose: 100.0 mg/kg/injection, schedule: Q04DX003 (ip), vehicle: Klucel (hydroxypropylcellulose) (HPC)) 100 % of control; (dose: 200.0 mg/kg/injection, schedule: Q04DX003 (ip), vehicle: Klucel (hydroxypropylcellulose) (HPC)) 102 % of control; (dose: 400.0 mg/kg/injection, schedule: Q04DX003 (ip), vehicle: Klucel (hydroxypropylcellulose) (HPC)) 96 % of control.

In the case of `Cn1c(=O)[nH]c2c(nc(-c3ccc4c(c3)OCO4)n2C)c1=O`, the T/C (dose: 7.8 mg/kg/injection, schedule: Q01DX005 (ip), vehicle: other) was 100 % of control; the T/C (dose: 15.6 mg/kg/injection, schedule: Q01DX005 (ip), vehicle: other) was 95 % of control; the T/C (dose: 31.3 mg/kg/injection, schedule: Q01DX005 (ip), vehicle: other) was 100 % of control; the T/C (dose: 62.5 mg/kg/injection, schedule: Q01DX005 (ip), vehicle: other) is 103 % of control.

Take `CCN(CCN(C)C(C)(C)C(C)(C)C)C(=O)C(O)(c1ccccc1)c1ccccc1`: the T/C reads like this: (dose: 50.0 mg/kg/injection, schedule: Q01DX009 (ip), vehicle: saline with Tween-80) 103 % of control; under setting [4], 110 % of control.

`Cc1ccc(Nc2ccc(O)c3c2C(=O)c2c(O)ccc(Nc4ccc(C)cc4)c2C3=O)cc1`: the T/C runs as follows: under setting [4], 88 % of control; under setting [5], 88 % of control; under setting [6], 98 % of control.

In the case of `CCCCCCCCCCCCCCCCCCNC(=O)Nc1ccc(C)c(C)c1`, the T/C was 104 % of control under setting [4]; 91 % of control under setting [2]; 105 % of control under setting [5]; 89 % of control under setting [7]; 105 % of control under setting [6]; 98 % of control under setting [3].

On to `O=S(=O)(O)c1ccc(-c2ccc(S(=O)(=O)O)cc2)cc1` (tested in a mixture with another compound), for which the T/C (dose: 6.3 mg/kg/injection, schedule: Q01DX009 (ip), vehicle: saline) is 95 % of control; the T/C (dose: 6.3 mg/kg/injection, schedule: Q04DX003 (ip), vehicle: saline) was 121 % of control and 108 % of control; the T/C (dose: 12.0 mg/kg/injection, schedule: Q01DX001 (ip), vehicle: saline) is 118 % of control; the T/C (dose: 12.5 mg/kg/injection, schedule: Q01DX001 (ip), vehicle: saline) was 117 % of control and 123 % of control; the T/C (dose: 12.5 mg/kg/injection, schedule: Q01DX009 (ip), vehicle: saline) is 150 % of control; the T/C (dose: 12.5 mg/kg/injection, schedule: Q04DX003 (ip), vehicle: saline) was 122 % of control. Moreover, the T/C by setting is: (dose: 25.0 mg/kg/injection, schedule: Q01DX009 (ip), vehicle: saline) 162 % of control and 172 % of control and 180 % of control; (dose: 50.0 mg/kg/injection, schedule: Q01DX001 (ip), vehicle: saline) 150 % of control; under setting [8], 115 % of control and 205 % of control and 342 % of control; (dose: 50.0 mg/kg/injection, schedule: Q04DX003 (ip), vehicle: saline) 160 % of control and 190 % of control and 205 % of control; (dose: 75.0 mg/kg/injection, schedule: Q04DX003 (ip), vehicle: saline) 195 % of control; under setting [9], 100 % of control and 102 % of control. Moreover, the T/C runs as follows: (dose: 100.0 mg/kg/injection, schedule: Q04DX003 (ip), vehicle: saline) 248 % of control and 275 % of control and 489 % of control; (dose: 150.0 mg/kg/injection, schedule: Q04DX003 (ip), vehicle: saline) 217 % of control; (dose: 200.0 mg/kg/injection, schedule: Q04DX003 (ip), vehicle: saline) 120 % of control.

Consider `CCOC(=O)C(C(=O)OCC)C(C[N+](=O)[O-])c1ccccc1` (stereo not given), for which the T/C is, setting by setting: under setting [8], 92 % of control; under setting [9], 116 % of control; (dose: 200.0 mg/kg/injection, schedule: Q01DX009 (ip), vehicle: saline) 96 % of control.

Regarding `COc1ccc(-c2nnc(-c3ccc(OC)c(Cl)c3)nn2)cc1Cl`, the T/C runs as follows: under setting [2], 93 % of control; under setting [7], 86 % of control.

With `C=C[CH2][Sn]([CH2]C=C)([CH2]CCC)[CH2]CCC`, the T/C reads like this: (dose: 6.25 mg/kg/injection, schedule: Q01DX009 (ip), vehicle: saline with Tween-80) 95 % of control; (dose: 12.5 mg/kg/injection, schedule: Q01DX009 (ip), vehicle: saline with Tween-80) 100 % of control; (dose: 25.0 mg/kg/injection, schedule: Q01DX009 (ip), vehicle: saline with Tween-80) 94 % of control.

As to `CCOC(=O)C(Cc1ccc(Cl)cc1)P(=O)(OCC)OCC` (stereo not given), the T/C is 106 % of control (dose: 100.0 mg/kg/injection, schedule: Q01DX001 (ip), vehicle: saline); 101 % of control (dose: 200.0 mg/kg/injection, schedule: Q01DX001 (ip), vehicle: saline); 106 % of control (dose: 400.0 mg/kg/injection, schedule: Q01DX001 (ip), vehicle: saline).

With `CC1Oc2ccccc2OC1C(=O)NN` (stereo not given), the T/C was 92 % of control under setting [4], 94 % of control under setting [5] and 94 % of control under setting [6].

For the origin of these results see PubChem BioAssay AID256 (DTP/NCI, 2004).
